Data set [1] concerns Glomerella lagenarium (Colletotrichum lagenarium). The data set can be described thus: Glomerella lagenarium (Colletotrichum lagenarium)/Liquid Culture (Anthracnose). In kind it is cell-based. The conditions noted are these: Colletotrichum orbiculare; 200 ppm in the formulation; liquid culture, growth inhibition photometrically 3 to 4 days after application; compared to untreated control; read-out: disease control.

Data set [2] relates to Monographella nivalis (Microdochium nivale). The data set can be described thus: Monographella nivalis (Microdochium nivale)/Liquid Culture (Foot Rot Cereals). The conditions noted are these: 200 ppm in the formulation, liquid culture, growth inhibition photometrically 4-5 days after application, compared to untreated control, read-out: disease control. In kind it is cell-based.

For data set [3], the system named is Mycosphaerella arachidis (Cercospora arachidicola). The data set can be described thus: Mycosphaerella arachidis (Cercospora arachidicola)/Liquid Culture (Early Leaf Spot). In kind it is cell-based. The conditions noted are these: 200 ppm in the formulation, liquid culture, growth inhibition photometrically 4-5 days after application, compared to untreated control, read-out: disease control.

The test system of data set [4] is Mycosphaerella graminicola (Septoria tritici). The data set can be described thus: Mycosphaerella graminicola (Septoria tritici)/Liquid Culture (Septoria Blotch). In kind it is cell-based. Particulars: Zymoseptoria tritici; 200 ppm in the formulation; liquid culture, growth inhibition photometrically 4 to 5 days after application; compared to untreated control; read-out: disease control.

Data set [5] has as its system Puccinia recondita f. sp. tritici. The data set can be described thus: Puccinia recondita f. sp. tritici/Wheat/Leaf Disc Preventative (Brown Rust). In kind it is in vivo. The conditions noted are these: foliar, 200 ppm in the formulation, wheat leaf segments cv. Kanzler, inoculated 1 day after application, assessed 7-9 days after application, compared to untreated, read-out: disease control.

Data set [6] concerns Botryotinia fuckeliana (Botrvtis cinerea). Description: Botryotinia fuckeliana (Botrvtis cinerea)/Liquid Culture (Gray Mould). The conditions noted are these: Botrytis cinerea; 200 ppm in the formulation; liquid culture, growth inhibition photometrically 3-4 days after application; compared to untreated control; read-out: disease control. In kind it is cell-based. The procedure:
Botryotinia fuckeliana (Botrvtis cinerea)/Liquid Culture (Gray Mould) Conidia of the fungus from cryogenic storage are directly mixed into nutrient broth (Vogels broth). After placing a (DMSO) solution of test compound into a microtiter plate (96-well format), the nutrient broth containing the fungal spores is added. The test plates are incubated at 24° C. and the inhibition of growth is determined photometrically 3-4 days after application.

Data set [7] concerns Phaeosphaeria nodorum (Septoria nodorum). Description: Phaeosphaeria nodorum (Septoria nodorum)/Wheat/Leaf Disc Preventative (Glume Blotch). In kind it is in vivo. The conditions noted are these: Parastagonospora nodorum, foliar; 200 ppm in the formulation; wheat leaf segments cv. Kanzler, inoculated 2 days after application, assessed 5-7 days after application; compared to untreated; read-out: disease control. As for the experimental part:
Phaeosphaeria nodorum (Septoria nodorum)/Wheat/Leaf Disc Preventative (Glume Blotch) Wheat leaf segments cv. Kanzler are placed on agar in a multiwell plate (24-well format) and sprayed with the formulated test compound diluted in water. The leaf disks are inoculated with a spore suspension of the fungus 2 days after application. The inoculated test leaf disks are incubated at 20° C. and 75% rh under a light regime of 12 h light/12 h darkness in a climate cabinet and the activity of a compound is assessed as percent disease control compared to untreated when an appropriate level of disease damage appears in untreated check leaf disks (5-7 days after application).

The structures appear in SMILES notation. Some results are limits rather than exact numbers.

Among the data in patent publication US11629129B2, “Microbiocidal picolinamide derivatives” (SYNGENTA PARTICIPATIONS AG, priority 2018, dated 2023) are inhibition of growth, pest or weed control and melting point values, retold here.

By melting point is commonly meant the temperature, or range, at which the solid turns liquid. `COc1ccnc(C(=O)N[C@@H](C)C(=O)O[C@@H](C)c2ccc(-c3ccc(Cl)cn3)cc2)c1O` [I.aa.001, [(1S)-1-[4-(5-chloro-2-pyridyl)phenyl]ethyl] (2S)-2-[(3-hydroxy-4-methoxy-pyridine-2-carbonyl)amino] propanoate] showed a melting point of 144 to 145 °C. Further, the inhibition of growth at 200 ppm in data set [1] is at least 80%. In addition, the inhibition of growth at 200 ppm in data set [2] was at least 80%. In addition, the inhibition of growth at 200 ppm in data set [3] was at least 80%. Moreover, in data set [4], the inhibition of growth at 200 ppm is at least 80%. Moreover, the pest or weed control at 200 ppm in data set [5] was at least 80%.
Consider `COc1ccnc(C(=O)N[C@@H](C)C(=O)O[C@@H](C)c2ccc(-c3ccc(Cl)cc3C)cc2)c1O` [I.n.001, [(1S)-1-[4-(4-chloro-2-methyl-phenyl)phenyl]ethyl] (2S)-2-[(3-hydroxy-4-methoxy-pyridine-2-carbonyl)amino] propanoate], for which the inhibition of growth at 200 ppm in data set [6], in data set [1], in data set [2], in data set [3] and in data set [4] was at least 80% throughout. Besides, the pest or weed control at 200 ppm in data set [7] and in data set [5] was at least 80% throughout.
Regarding `COc1ccnc(C(=O)N[C@@H](C)C(=O)O[C@@H](C)c2ccc(-c3ccc(Br)cc3)cc2)c1O` [I.v.001, [(1S)-1-[4-(4-bromophenyl)phenyl]ethyl] (2S)-2-[(3-hydroxy-4-methoxy-pyridine-2-carbonyl)amino] propanoate], the inhibition of growth at 200 ppm in data set [6], in data set [1], in data set [2], in data set [3] and in data set [4] was at least 80% throughout. The pest or weed control at 200 ppm in data set [7] and in data set [5] was at least 80% in each case.
